From patent US12552800B2, “Compounds for diagnosis” (AC IMMUNE SA, priority 2020, dated 2026)

Assays:
[1] = target: T1, PD brain-derived a-syn aggregates (Homo sapiens, UniProt P37840); experiment: Micro-radiobinding competition assay against Example-1 [^3H-1] (Table 8); type: binding; conditions: human PD brain-derived a-syn aggregates; for Competition at 100 nM (%): 100 nM non-radiolabelled example compound vs Example-1 [^3H-1] ligand; for Competition at 1 μM (%): 1 μM non-radiolabelled example compound vs Example-1 [^3H-1] ligand
T1 construct: from tissue; host or cells: human PD donor brain, sarkosyl-insoluble 100,000 x g pellet
Procedure: PD brain-derived a-syn aggregates were spotted onto microarray slides. The slides were incubated with the Example-1 [^3H-1] at 6 nM or 20 nM and the example compounds (non-radiolabelled) at 1 μM and 100 nM. In some cases, the non-radiolabelled example compounds were further assessed for a range of different concentrations, varying from 0.05 nM to 2 μM. After incubation, slides were washed and scanned by a real-time autoradiography system (BeaQuant, ai4R). Quantification of the signal was performed by using the Beamage image analysis software (ai4R). […] All measurements were performed with at least two technical replicates. For compounds tested in more than one experiment, the mean of the replicates or K; values in independent experiments is reported.
Results: Example compounds were assessed for their potency to compete with the binding of Example-1 [^3H-1] ligand to PD patient brain-derived a-syn aggregates. Results of the micro-radiobinding competition assay for the example compounds tested are shown in Table 8 as: % competition at 1 μM and 100 nM.

[2] = target: T1, PD brain-derived a-syn aggregates; experiment: as above; type: binding; conditions: competition over Example-1 [^3H-1]

| SMILES | Competition at 100 nM (%) [1] | Competition at 1 μM (%) [1] | Ki [2] |
| --- | --- | --- | --- |
| O=C1c2cn(-c3ccc(N4CCC[C@@H](F)C4)nc3)nc2CN1c1cccnc1 [Example 40] | 50% | 77% | 49 nM |
| O=C1c2cn(-c3ccc(N4CCCC4)nc3)nc2CN1c1cncc(F)c1 [Example 99] | 56% | 92% | 82 nM |
| O=C1c2cn(-c3ccc(N4CC[C@@H](F)C4)nc3)nc2CN1c1cnccn1 [Example 7] | 87% | 101% | 5 nM |
| O=C1c2cn(-c3ccc(N4CCCC4)nc3)nc2CN1c1cncc(F)n1 [Example 139] | 58% | 77% | 7 nM |
| Cc1ccnc(N2Cc3nn(-c4ccc(N5CC[C@@H](F)C5)nc4)cc3C2=O)c1 [Example 80] | 51% | 83% | 56 nM |
| Cc1c2c(nn1-c1ccc(N3CC[C@@H](F)C3)nc1)CN(c1ccccn1)C2=O [Example 95] | 34% | 68% | 54 nM |
| O=C1c2cn(-c3ccc(N4CC[C@H](F)C4)nc3)nc2CN1c1ncccc1O [Example 169] | 73% | 96% | 45 nM |
| Cl.O=C1c2cn(-c3ccc(N4CCCC4)nc3)nc2CN1c1cnc(F)cn1 [Example 143] | 80% | 91% | 8 nM |
| O=C1c2cn(-c3ccc(N4CC[C@@H](F)C4)nc3)nc2CN1c1ccnnc1 [Example 25] | 64% | 94% | 68 nM |
| Nc1cc(N2Cc3nn(-c4ccc(N5CCCC5)nc4)cc3C2=O)ccc1F [Example 44] | 90% | – | – |
| N#Cc1cccc(N2Cc3nn(-c4ccc(N5CC[C@H](F)C5)nc4)cc3C2=O)c1 [Example 65] | 64% | – | – |
| COc1ccc(-n2cc3c(n2)CN(c2cccnc2)C3=O)cn1 [Example 130] | 74% | 85% | – |
| O=C1c2cn(-c3ccc(N4CCCC4)nc3)nc2CN1c1cnccc1F [Example 47] | 39% | – | – |
| O=C1c2cn(-c3ccc(N4CC[C@H](F)C4)nc3)nc2CN1c1cnsc1 [Example 132] | 63% | 93% | – |
| COc1ccc(N2Cc3nn(-c4ccc(N5CC[C@@H](F)C5)nc4)cc3C2=O)nc1 [Example 58] | 85% | 98% | – |
| O=C1c2cn(-c3ccc(NC4CC(F)C4)nc3)nc2CN1c1ccncc1 (stereo not drawn) [Example 90] | 18% | 51% | – |
| COc1cc(N2Cc3nn(-c4ccc(N5CC[C@@H](F)C5)nc4)cc3C2=O)ccn1 [Example 107] | 92% | 100% | – |
| O=C1c2cn(-c3ccc(N4CC[C@@H](F)C4)nc3)nc2CN1c1ncccn1 [Example 15] | 61% | 91% | – |
| Cc1cc(N2Cc3nn(-c4ccc(N5CC[C@H](F)C5)nc4)cc3C2=O)ccn1 [Example 104] | 86% | 98% | – |
| Cc1ccc(N2Cc3nn(-c4ccc(N5CC[C@@H](F)C5)nc4)cc3C2=O)nc1 [Example 110] | 75% | 105% | – |
| COc1cccc(N2Cc3nn(-c4ccc(N5CC[C@@H](F)C5)nc4)cc3C2=O)n1 [Example 74] | 22% | 39% | – |
| Cn1cnc(N2Cc3nn(-c4ccc(N5CC[C@@H](F)C5)nc4)cc3C2=O)c1 [Example 133] | 59% | – | – |
| Cc1ncccc1N1Cc2nn(-c3ccc(N4CC[C@H](F)C4)nc3)cc2C1=O [Example 13] | 4% | 31% | – |
| O=C1c2cn(-c3ccc(N4CCCC4)nc3)nc2CN1c1cccc(F)n1 [Example 140] | 67% | – | – |
| N#Cc1ccc(N2Cc3nn(-c4ccc(N5CC[C@H](F)C5)nc4)cc3C2=O)cc1N [Example 21] | – | 84% | – |

| SMILES | Competition at 100 nM (%) [1] | Competition at 1 μM (%) [1] | Ki [2] |
| --- | --- | --- | --- |
| N#Cc1cccc(N2Cc3nn(-c4ccc(N5CC[C@H](F)C5)nc4)cc3C2=O)n1 [Example 84] | 14% | 38% | – |
| O=C1c2cn(-c3ccc(N4CCCC4)nc3)nc2CN1c1cnn(CCF)c1 [Example 129] | 25% | 74% | – |
| O=C1c2cn(-c3ccc(N4CCOCC4)nc3)nc2CN1c1cncc(F)n1 [Example 141] | 51% | 66% | – |
| Cn1cc(-n2cc3c(n2)CN(c2cncc(F)n2)C3=O)cn1 [Example 149] | – | 53% | – |
| Cn1cc(-n2cc3c(n2)CN(c2cccc(F)n2)C3=O)cn1 [Example 150] | 37% | 46% | – |
| Cl.O=C1c2cn(-c3ccc(N4CCCC4)nc3)nc2CN1c1ccc(F)nc1 [Example 49] | 48% | 84% | – |
| O=C1c2cn(-c3ccc(N4CC[C@@H](F)C4)nc3)nc2CN1c1cccc(O)c1 [Example 177] | 76% | 100% | – |
| COc1cccc(N2Cc3nn(-c4ccc(N5CC[C@H](F)C5)nc4)cc3C2=O)n1 [Example 78] | 60% | – | – |
| O=C1c2cn(-c3ccc(N4CC[C@@H](F)C4)cc3)nc2CN1c1cccnc1 [Example 85] | 72% | 99% | – |
| O=C1c2cn(-c3ccc(N4CCCC4)nc3)nc2CN1c1cccnc1F [Example 39] | 43% | 66% | – |
| O=C1c2cn(-c3ccc(C4CCCC4)nc3)nc2CN1c1cccc(F)n1 [Example 154] | 81% | 99% | – |
| O=C1c2cn(-c3ccc(N4CCCC4)nc3)nc2CN1c1cc(F)ccn1 [Example 100] | 78% | – | – |
| O=C1c2cn(-c3ccc(N4CCCC4)nc3)nc2CN1c1nccnc1F [Example 42] | 57% | 89% | – |
| N#Cc1cncc(N2Cc3nn(-c4ccc(N5CC[C@@H](F)C5)nc4)cc3C2=O)c1 [Example 109] | 67% | – | – |
| O=C1c2cn(-c3ccc(F)cn3)nc2CN1c1cccnc1 [Example 138] | 32% | 57% | – |
| O=C1c2cn(-c3ccc(C4CCCC4)nc3)nc2CN1c1cncc(F)n1 [Example 161] | 42% | 65% | – |
| COc1ccc(N2Cc3nn(-c4ccc(N5CC[C@H](F)C5)nc4)cc3C2=O)cc1 [Example 30] | 80% | 95% | – |
| COc1ccc(N2Cc3nn(-c4ccc(N5CC[C@H](F)C5)nc4)cc3C2=O)cn1 [Example 9] | 69% | 90% | – |
| O=C1c2cn(-c3ccc(N4CC[C@H](F)C4)nc3)nc2CN1c1nccs1 [Example 136] | 75% | – | – |
| O=C1c2cn(-c3ccc(N4CCCC4)nc3)nc2CN1c1ncccc1F [Example 103] | 41% | 70% | – |
| O=C1c2cn(-c3ccc(N4CC[C@@H](F)C4)nc3)nc2CN1c1ccnc(O)c1 [Example 171] | 48% | – | – |
| N#Cc1ccc(N2Cc3nn(-c4ccc(N5CC[C@H](F)C5)nc4)cc3C2=O)cn1 [Example 29] | 91% | – | – |
| Cc1cccc(N2Cc3nn(-c4ccc(N5CC[C@H](F)C5)nc4)cc3C2=O)n1 [Example 83] | 47% | – | – |
| N#Cc1cccc(N2Cc3nn(-c4ccc(N5CC[C@@H](F)C5)nc4)cc3C2=O)c1 [Example 67] | 71% | – | – |
| N#Cc1ccnc(N2Cc3nn(-c4ccc(N5CC[C@H](F)C5)nc4)cc3C2=O)c1 [Example 88] | 75% | – | – |
